In brackets after ≈: the same amount, converted by molar mass. Entries after “also recorded” stand apart in the source; their conditions may differ.
Columns and labels:
[1] = test system: KBM-3 leukemic CFC and GM-CFC in bone marrow; test: cells; type: cell-based, human
HL-60/AMSA = test: cells; type: cell-based; settings: Homo sapiens
KBM-3/AMSA = test: cells; type: cell-based, human; settings: Homo sapiens
KBM-3 = test: Clonogenic assay, drug in agar, prolonged exposure (Table 8, FIG. 11); type: cell-based; settings: Homo sapiens, drug added to agar plates
[2] = test system: GM-CFC from normal human bone marrow
[3] = Stability of frozen stock solution; type: physicochemical; settings: frozen at -80° C., stock solution 265 uM
Experimental: In the initial experiments, acetaldoifosphamide (1-C) was weighed and dissolved in Dulbecco's phosphate-buffered saline (pH 7.4) (GIBCO, Grand Island, N.Y.) supplemented with Ca++ (10 mg %) and glucose (100 mg %) (enriched PBS) immediately prior to each experiment. […] In subsequent experiments a frozen stock solution was used; aliquots were thawed as necessary immediately prior to use.

[4] = test system: GM-CFC from normal human bone marrow; test: Long-term suspension culture: GM-CFC regrowth on autologous irradiated adherent cell layers (Table 9); type: cell-based; settings: for GM-CFC × 10^-3 per adherent cell layer: end of culture period; for GM-CFC × 10^-3 per adherent cell layer / GM-CFC × 10^-3 per culture: average ± S.D.
Experimental: (§1) A modification of previously reported techniques was used (Gartner and Kaplan, 1980; Greenberg et al., 1981; Potter et al., 1981; Coulombel et al., 1983). Briefly, 1×10^7 mononuclear bone marrow cells were suspended in 10 ml IMDM supplemented with 12.5% horse serum, 12.5% FCS and 5×10^-6 M hydrocortisone succinate (HyC) (Abbott Laboratories, N. Chicago, Ill.) in 25 cm^2 tissue culture flasks (Corning Glass Works, Corning N.Y.). After 8 to 10 days an adherent fibroblast (feeder) layer, supplying a hemopoietic microenvironment, was established. The non-adherent cells were washed off, and the feeder layer was irradiated with 3.0 Gy gamma-irradiation at a dose rate of 3.3 Gy per min. A second bone marrow sample was obtained from the same donor, and low-density mononuclear cells were isolated as above. The cells were exposed for 60 min at 37° C. to increasing drug concentrations. After two washings, the cells were suspended in 10 ml IMDM with 10% FCS and 5×10^-6 M HyC, and then added to the previously established feeder layers. All cultures were established in duplicate, and all flasks were incubated for five weeks at 37° C. in an atmosphere of 5% CO2 and 12% O2 balanced with N2 to 100%. Twice weekly, 85% of the medium was replaced with fresh medium. Immediately after drug exposure, and at weekly intervals up to 5 weeks, one ml of the cell suspension was removed and monitored for the presence of GM-CFC using the soft agar assay as described above. The total number of surviving GM-CFC formed from untreated cells served as a quality control of the culture system and as a reference (positive controls) for calculating the surviving GM-CFC fraction in cultures of drug-treated cells Flasks containing irradiated stromal cell layers alone were subjected to the same twice-weekly media changes and were monitored weekly for possible regrowth of GM-CFC (negative controls). After five weeks, all non-adherent cells were removed from the flasks. The feeder layers were carefully rinsed twice with 10 ml of PBS, then treated with 0.2% trypsin in EDTA solution (GIBCO Laboratories, Grand Island, N.Y.) for 2-3 min at 37° C. After washing, the resulting single cell suspensions were assayed for GM-CFC.
(§2) ^a Average values ± S.D. for three experiments. In each experiment
(§3) the cultures were conducted in duplicates.
(§4) ^b At the end of the culture period. For details see Materials and […]

[5] = as above; type: cell-based, human; settings: human, bone marrow gm-cfc; concentration used in long-term suspension cultures; read-out: detectable GM-CFC abolished
Experimental: as §1, §2, §3, §4

KBM-3/DOX = test: cells; type: cell-based, human; settings: Homo sapiens
in vitro = settings: human, bone marrow gm-cfc
[6] = test system: human myeloid cell line KBM-3; test: cells
HL-60 = test: Clonogenic assay, drug in agar, prolonged exposure (Table 8, FIG. 11); type: cell-based; settings: Homo sapiens, drug added to agar plates
[7] = test system: mononuclear cells from normal bone marrow (GM-CFC)
[8] = test system: mononuclear cells from normal bone marrow (GM-CFC); test: cells; settings: Homo sapiens, 1 h
[9] = test system: human myeloid cell line KBM-3
[10] = Stability in phosphate-buffered saline
[11] = test system: L1210 lymphatic leukemia cells; test: cells; type: cell-based, murine; settings: Mus musculus, L1210, 72 h, read-out: ED50
[12] = background; cited from earlier work

Structure (SMILES): CC(=O)OC(CCOP(=O)(NCCCl)NCCCl)OC(C)=O [acetaldoifosphamide]
- regrowth / elimination of leukemic cells [1]: leukemic cell proliferation was not evident; also recorded: no regrowth of leukemic CFC was observed; also recorded: the leukemia was completely eliminated with full recovery of GM-CFC production
- log reduction at 39.6 µM ([1]; Homo sapiens, 1 h, read-out: reduction of leukemic cells): > 5
- IC50 (HL-60/AMSA): 560 nM
- IC50 (KBM-3/AMSA): 680 nM
- IC50 (KBM-3): 200 nM
- GM-CFC doubling time [2]: 6 to 12 h
- GM-CFC recovery kinetics / progenitor sparing, in words [2]: has a sparing effect on very immature hemopoietic stem cells
- delay in proliferation of the GM-CFC pool [2]: 24 h
- detectable GM-CFC after highest concentration [2]: initially had no detectable GM-CFC, however after day two rapid GM-CFC proliferation was apparent
- retention of full cytotoxic activity on storage [3]: retained full cytotoxic activity for more than four months
- GM-CFC × 10^-3 per adherent cell layer ([4]; 26.4 uM): 0.22 ± 0.09 GM-CFC × 10^-3 per adherent ce
- GM-CFC × 10^-3 per culture ([4]; 26.4 uM, week 0): 2.8 ± 1.5 GM-CFC × 10^-3 per culture
- GM-CFC × 10^-3 per culture ([4]; 26.4 uM, week 1): 15.0 ± 1.8 GM-CFC × 10^-3 per culture
- GM-CFC × 10^-3 per culture ([4]; 26.4 uM, week 2): 18.2 ± 4.6 GM-CFC × 10^-3 per culture
- GM-CFC × 10^-3 per culture ([4]; 26.4 uM, week 3): 2.9 ± 1.1 GM-CFC × 10^-3 per culture
- GM-CFC × 10^-3 per culture ([4]; 26.4 uM, week 4): 0.8 ± 0.4 GM-CFC × 10^-3 per culture
- GM-CFC × 10^-3 per culture ([4]; 26.4 uM, week 5): 0.09 ± 0.03 GM-CFC × 10^-3 per culture
- GM-CFC content of adherent cell layer vs controls ([4]; 33 uM, end of five weeks): contained more GM-CFC than the controls
- GM-CFC × 10^-3 per adherent cell layer ([4]; 33.0 uM): 0.12 ± 0.04 GM-CFC × 10^-3 per adherent ce
- GM-CFC × 10^-3 per culture ([4]; 33.0 uM, week 0): 0.1 ± 0.04 GM-CFC × 10^-3 per culture
- GM-CFC × 10^-3 per culture ([4]; 33.0 uM, week 1): 7.7 ± 1.3 GM-CFC × 10^-3 per culture
- GM-CFC × 10^-3 per culture ([4]; 33.0 uM, week 2): 18.6 ± 2.5 GM-CFC × 10^-3 per culture
- GM-CFC × 10^-3 per culture ([4]; 33.0 uM, week 3): 2.6 ± 0.3 GM-CFC × 10^-3 per culture
- GM-CFC × 10^-3 per culture ([4]; 33.0 uM, week 4): 1.1 ± 0.3 GM-CFC × 10^-3 per culture
- GM-CFC × 10^-3 per culture ([4]; 33.0 uM, week 5): 0.13 ± 0.06 GM-CFC × 10^-3 per culture
- GM-CFC content of adherent cell layer vs controls ([4]; 39.6 uM, end of five weeks): had the same GM-CFC content as the controls
- GM-CFC × 10^-3 per adherent cell layer ([4]; 39.6 uM): 0.06 ± 0.03 GM-CFC × 10^-3 per adherent ce
- GM-CFC × 10^-3 per culture ([4]; 39.6 uM, week 0): 0.3 ± 0.2 GM-CFC × 10^-3 per culture
- GM-CFC × 10^-3 per culture ([4]; 39.6 uM, week 1): 16.8 ± 7.6 GM-CFC × 10^-3 per culture
- GM-CFC × 10^-3 per culture ([4]; 39.6 uM, week 2): 18.5 ± 6.5 GM-CFC × 10^-3 per culture
- GM-CFC × 10^-3 per culture ([4]; 39.6 uM, week 3): 3.9 ± 1.3 GM-CFC × 10^-3 per culture
- GM-CFC × 10^-3 per culture ([4]; 39.6 uM, week 4): 0.8 ± 0.3 GM-CFC × 10^-3 per culture
- GM-CFC × 10^-3 per culture ([4]; 39.6 uM, week 5): 0.10 ± 0.02 GM-CFC × 10^-3 per culture
- number of GM-CFC in non-adherent and adherent population ([4]; 53 uM, end of five weeks): subnormal number of GM-CFC
- GM-CFC × 10^-3 per adherent cell layer ([4]; 53.0 uM): 0.03 ± 0.01 GM-CFC × 10^-3 per adherent ce
- GM-CFC × 10^-3 per culture ([4]; 53.0 uM, week 0): 0 GM-CFC × 10^-3 per culture
- GM-CFC × 10^-3 per culture ([4]; 53.0 uM, week 1): 0.2 ± 0.0 GM-CFC × 10^-3 per culture
- GM-CFC × 10^-3 per culture ([4]; 53.0 uM, week 2): 1.2 ± 0.2 GM-CFC × 10^-3 per culture
- GM-CFC × 10^-3 per culture ([4]; 53.0 uM, week 3): 0.3 ± 0.1 GM-CFC × 10^-3 per culture
- GM-CFC × 10^-3 per culture ([4]; 53.0 uM, week 4): 0.06 ± 0.02 GM-CFC × 10^-3 per culture
- GM-CFC × 10^-3 per culture ([4]; 53.0 uM, week 5): 0.006 ± 0.002 GM-CFC × 10^-3 per culture
- IC99 ([4]; Homo sapiens, 1 h, GM-CFC): 33 µM
- IC100 ([4]; Homo sapiens, 1 h, GM-CFC): 53 µM
- time to recovery of GM-CFC to control level ([4]; after bone marrow exposure): ≤ 2 weeks
- GM-CFC recovery to control levels ([4]; normal bone marrow, concentration abolishing more than 99% of GM-CFC): two to three weeks
- cytotoxicity at 1 h [5]: > 99%
- IC50 (KBM-3/DOX): 160 nM
- cytotoxicity at 1 h (in vitro): 95 to 100%
- IC90 [6]: ~1300 nM
- IC50 (HL-60): 300 nM
- effect of erythrocytes on activity [7]: decreases the activity
- cytotoxicity relative to 4-HC on a molar basis ([7]; human): 8-10 times
- IC50 [8]: 11500 to 12500 nM
- activity against normal marrow GM-CFC versus leukemic myeloid CFC (KBM-3) [9]: more active against normal marrow GM-CFC than against leukemic myeloid CFC
- dependence of cytotoxicity on cell concentration [9]: a 20-fold increase in cell concentration results in only a two-fold decrease in cytotoxicity
- increase in clonogenic KBM-3 cell survival [9]: 2 fold
- half-life ([10]; pbs, pH 7.4): > 80 h
- stability in saline solution ([10]; saline solution): stable in saline solution

Structure (SMILES): O=P1(N(CCCl)CCCl)NCCCO1 (stereo not drawn) [Cyclophosphamide, cyclophosphamide, reference compound]
- IC50 [11]: 20 µg/mL (≈ 76.6 µM)
- therapeutic index, in words [12]: higher therapeutic index than must other mustard-type alkylating agents

Reference: patent US5055459A, “Selective elimination of malignant cells from bone marrow by bis (acyloxy) propylphosphoramidates” (Board of Regents, The University of Texas, priority 1989, dated 1991)
